Reference: patent publication US11364208B2, “Topical compositions” (DSM IP ASSETS B.V., priority 2017, dated 2022)

Key:
[1] = test system: Malassezia furfur; assay: Antimicrobial efficacy in analogy to challenge test NF EN ISO11930, Malassezia furfur; type: cell-based; conditions: for Δ (change of microorganism count t = 0 h to t = 24): 24 h, 0.5 wt.-% of each active; for Δ (change of microorganism count t = 0 h to t = 24) / Malassezia furfur colony count: 22° C., initial count 3300 cfu/ml; for Malassezia furfur colony count: 24 h after contamination, physiological serum 0.85 wt.-% NaCl, 0.5 wt.-% of each active (0.5 wt.-% Erythrulose corresponds to 0.4 wt.-% of active)
Method: (§1) The wells were contaminated with Malassezia furfur, Propionibacterium acnes, respectively Aspergillus brasiliensis to obtain the initial contamination as outlined in table 1, 2 and 3. […] The counting of the (remaining) population was carried out 24 h after contamination.

[2] = test system: Aspergillus brasiliensis; assay: Antimicrobial efficacy in analogy to challenge test NF EN ISO11930, Aspergillus brasiliensis; type: cell-based; conditions: 24 h, 22° C.; for Aspergillus brasiliensis colony count: initial count 10000 cfu/ml
Method: as §1
(The term “Log reduction” is a well-known mathematical term used to show the relative number of cells, germs, microbes, etc., reduced in or on something, e.g. a 2 log reduction means the number of microbes is 100 times smaller and a 3 log reduction means the number of microbes is 1000 times smaller).

[3] = 0.5 wt.-% Erythrulose (corresponds to 0.4 wt.-% of active)
[4] = 0.4 wt.-% p-Hydroxyacetophenone

| Compound | Δ (change of microorganism count t = 0 h to t = 24) [1] | Malassezia furfur colony count [1] [cfu/ml] | anti-fungal effect against Malassezia furfur (in words) ([1]; concentration of 0.5%) | Log step reduction [2, 3] | Aspergillus brasiliensis colony count [2, 3] [cfu/ml] | Log step reduction [2, 4] | Aspergillus brasiliensis colony count [2, 4] [cfu/ml] |
| --- | --- | --- | --- | --- | --- | --- | --- |
| O=C(CO)[C@@H](O)CO [Erythrulose, L-(+)-Erythrulose] | ±0% | 3300 | does not exert any anti-fungal effect | 2 | 100 | – | – |
| CC(=O)c1ccc(O)cc1 [p-Hydroxyacetophenone, 1-(4-hydroxyphenyl)-ethanone] | −83% | 550 | – | – | – | 2 | 100 |
